Source: patent US7728174B2, “Continuous hydrogenation processes for the preparation of xylylenediamines” (BASF SE, priority 2005, dated 2010)

Experiment: solubility of IPN in ammonia, meta-xylylenediamine and their mixtures
Assay type: physicochemical

N#Cc1cccc(C#N)c1 [IPN, 1,3-dicyanobenzene]
solubility of IPN in the mixture (Example 1 mixture: 178 g/h circulation stream [13] and 94 g/h fresh ammonia, at 60° C.): about 30 % by weight
solubility of IPN in the mixture (Example 2 mixture: 320 g/h circulation stream [13] and 40 g/h fresh ammonia, at 60° C.): about 25 % by weight
solubility of IPN (in MXDA, at 70° C.): approx. 20 % by weight
solubility of IPN (in NH3, at 60° C.): approx. 44 % by weight
solubility of IPN (in a mixture of approximately equal parts by mass of meta-xylylenediamine and liquid ammonia, at 60° C.): approx. 30 % by weight
solubility of IPN (in meta-xylylenediamine, at 60° C.): approx. 15 % by weight
